Values after ≈ are worked out from the molar mass of the structure shown.
Experiments:
Type in all cases: functional
Aspergillus niger = assay: Antifungal activity against Aspergillus niger MTCC 282 by agar streak dilution method
Candida albicans = assay: Antifungal activity against Candida albicans MTCC 183 by agar streak dilution method
Staphylococcus aureus = assay: Antibacterial activity against Staphylococcus aureus MTCC 96 by agar streak dilution method
Klebsiella pneumoniae = assay: Antibacterial activity against Klebsiella pneumoniae MTCC 109 by agar streak dilution method
Pseudomonas aeruginosa = assay: Antibacterial activity against Pseudomonas aeruginosa MTCC 741 by agar streak dilution method
Escherichia coli = assay: Antibacterial activity against Escherichia coli MTCC 739 by agar streak dilution method
Bacillus cereus = assay: Antibacterial activity against Bacillus cereus MTCC 619 by agar streak dilution method

Molecule	MIC (Aspergillus niger)	MIC (Candida albicans)	MIC (Staphylococcus aureus)	MIC (Klebsiella pneumoniae)	MIC (Pseudomonas aeruginosa)	MIC (Escherichia coli)	MIC (Bacillus cereus)
OC(Cn1cncn1)(Cn1cncn1)c1ccc(F)cc1F [FLUCONAZOLE]	6.25 µg/mL (≈ 20.4 µM)	12.5 µg/mL (≈ 40.8 µM)	–	–	–	–	–
CC1(C)S[C@@H]2[C@H](NC(=O)[C@H](N)c3ccccc3)C(=O)N2[C@H]1C(=O)O [AMPICILLIN]	–	–	12.5 µg/mL (≈ 35.8 µM)	25 µg/mL (≈ 71.5 µM)	25 µg/mL (≈ 71.5 µM)	6.25 µg/mL (≈ 17.9 µM)	12.5 µg/mL (≈ 35.8 µM)
CC(=O)Nc1ccc2nc(NC(=O)CSc3nnc(-c4ccc5ncccc5c4)n3-c3cccc4ccccc34)sc2c1	62.5 µg/mL (≈ 104 µM)	100 µg/mL (≈ 166 µM)	500 µg/mL (≈ 831 µM)	250 µg/mL (≈ 415 µM)	62.5 µg/mL (≈ 104 µM)	200 µg/mL (≈ 332 µM)	250 µg/mL (≈ 415 µM)
Cc1ccc2nc(NC(=O)CSc3nnc(-c4ccc5ncccc5c4)n3-c3cccc4ccccc34)sc2c1	50 µg/mL (≈ 89.5 µM)	200 µg/mL (≈ 358 µM)	> 500 µg/mL	500 µg/mL (≈ 895 µM)	100 µg/mL (≈ 179 µM)	200 µg/mL (≈ 358 µM)	250 µg/mL (≈ 447 µM)
O=C(CSc1nnc(-c2ccc3ncccc3c2)n1-c1cccc2ccccc12)Nc1nc2ccccc2s1	200 µg/mL (≈ 367 µM)	100 µg/mL (≈ 184 µM)	500 µg/mL (≈ 918 µM)	500 µg/mL (≈ 918 µM)	500 µg/mL (≈ 918 µM)	250 µg/mL (≈ 459 µM)	250 µg/mL (≈ 459 µM)
CCOc1ccc2nc(NC(=O)CSc3nnc(-c4ccc5ncccc5c4)n3-c3cccc4ccccc34)sc2c1	12.5 µg/mL (≈ 21.2 µM)	6.25 µg/mL (≈ 10.6 µM)	200 µg/mL (≈ 340 µM)	100 µg/mL (≈ 170 µM)	25 µg/mL (≈ 42.5 µM)	100 µg/mL (≈ 170 µM)	100 µg/mL (≈ 170 µM)
O=C(CSc1nnc(-c2ccc3ncccc3c2)n1-c1cccc2ccccc12)Nc1nc2ccc(F)cc2s1	25 µg/mL (≈ 44.4 µM)	50 µg/mL (≈ 88.9 µM)	25 µg/mL (≈ 44.4 µM)	62.5 µg/mL (≈ 111 µM)	100 µg/mL (≈ 178 µM)	100 µg/mL (≈ 178 µM)	50 µg/mL (≈ 88.9 µM)
O=C(CSc1nnc(-c2ccc3ncccc3c2)n1-c1cccc2ccccc12)Nc1nc2ccc(I)cc2s1	62.5 µg/mL (≈ 93.2 µM)	62.5 µg/mL (≈ 93.2 µM)	250 µg/mL (≈ 373 µM)	100 µg/mL (≈ 149 µM)	250 µg/mL (≈ 373 µM)	250 µg/mL (≈ 373 µM)	200 µg/mL (≈ 298 µM)
O=C(CSc1nnc(-c2ccc3ncccc3c2)n1-c1cccc2ccccc12)Nc1nc2ccc([N+](=O)[O-])cc2s1	6.25 µg/mL (≈ 10.6 µM)	50 µg/mL (≈ 84.8 µM)	200 µg/mL (≈ 339 µM)	50 µg/mL (≈ 84.8 µM)	50 µg/mL (≈ 84.8 µM)	50 µg/mL (≈ 84.8 µM)	62.5 µg/mL (≈ 106 µM)
COc1ccc2nc(NC(=O)CSc3nnc(-c4ccc5ncccc5c4)n3-c3cccc4ccccc34)sc2c1	6.25 µg/mL (≈ 10.9 µM)	25 µg/mL (≈ 43.5 µM)	100 µg/mL (≈ 174 µM)	62.5 µg/mL (≈ 109 µM)	50 µg/mL (≈ 87 µM)	62.5 µg/mL (≈ 109 µM)	100 µg/mL (≈ 174 µM)
O=C(CSc1nnc(-c2ccc3ncccc3c2)n1-c1cccc2ccccc12)Nc1nc2ccc(Cl)cc2s1	100 µg/mL (≈ 173 µM)	50 µg/mL (≈ 86.3 µM)	200 µg/mL (≈ 345 µM)	62.5 µg/mL (≈ 108 µM)	200 µg/mL (≈ 345 µM)	100 µg/mL (≈ 173 µM)	100 µg/mL (≈ 173 µM)
O=C(CSc1nnc(-c2ccc3ncccc3c2)n1-c1cccc2ccccc12)Nc1nc2ccc(Br)cc2s1	50 µg/mL (≈ 80.2 µM)	25 µg/mL (≈ 40.1 µM)	50 µg/mL (≈ 80.2 µM)	100 µg/mL (≈ 160 µM)	100 µg/mL (≈ 160 µM)	62.5 µg/mL (≈ 100 µM)	25 µg/mL (≈ 40.1 µM)
N#Cc1ccc2nc(NC(=O)CSc3nnc(-c4ccc5ncccc5c4)n3-c3cccc4ccccc34)sc2c1	100 µg/mL (≈ 176 µM)	6.25 µg/mL (≈ 11 µM)	500 µg/mL (≈ 878 µM)	50 µg/mL (≈ 87.8 µM)	100 µg/mL (≈ 176 µM)	50 µg/mL (≈ 87.8 µM)	200 µg/mL (≈ 351 µM)
GENTAMICIN	–	–	6.25 µg/mL	25 µg/mL	12.5 µg/mL	12.5 µg/mL	6.25 µg/mL

Source: ChEMBL document CHEMBL3098118, “Access to a new class of biologically active quinoline based 1,2,4-triazoles” (2014)
